From patent US5270312A, “Substituted piperazines as central nervous system agents” (Warner-Lambert Company, priority 1991, dated 1993)

Experiments:
[1] = test system: locomotor activity in mice; assay: Inhibition of locomotor activity in mice; format: in vivo; settings: Mus musculus, IP
Procedure: (§1) The compounds of Formula I are valuable dopaminergic agents. […] Thus, the compounds of Formula I were tested for their ability to inhibit locomotor activity in mice according to the assay described by J. R. McLean, et al, Pharmacology, Biochemistry and Behavior, Volume 8, pages 97-99 (1978); for their ability to inhibit [^3 H]-spiroperidol binding in a receptor assay described by D. Grigoriadis and P. Seeman, Journal of Neurochemistry, Volume 44, pages 1925-1935 (1985); and for their ability to inhibit dopamine synthesis in rats according to the protocol described by J. R. Walters and R. H. Roth, Naunyn-Schmiedeberg's Archives of Pharmacology, Volume 296, pages 5-14 (1976). The above test methods are incorporated herein by reference. The data in the table show the dopaminergic activity of representative compounds of Formula 1.

[2] = target: [^3 H]-spiroperidol binding (receptor assay); assay: Inhibition of [^3 H]spiroperidol binding, receptor assay
Procedure: as §1

[3] = test system: brain dopamine synthesis in rats; assay: Reversal of brain dopamine synthesis in rats (inhibition of dopamine synthesis); format: in vivo; settings: 10 mg/kg, IP
Procedure: as §1

Row | Compound | ED50 [1] [mg/kg] | IC50 [2] [nM] | % Reversal of Brain Dopamine Synthesis in Rats [3] [%]
1 | C(#Cc1cnc2ccccc2c1)CCN1CCN(c2ccccn2)CC1 [Example 1, 3-[4-[4-(2-Pyridinyl)-1-piperazinyl]-1-butynyl]-quinoline] | 1.5 | 177 | –
2 | Fc1ccc(N2CCN(CCC#Cc3cccnc3)CC2)cc1 [Example 2, 1-(4-Fluorophenyl)-4-[4-(3-pyridinyl)-3-butynyl]-piperazine] | 4.7 | 2330 | 20
3 | C(#Cc1cccnc1)CCN1CCN(c2ccccn2)CC1 [Example 3, 1-(2-Pyridinyl)-4-[4-(3-pyridinyl)-3-butynyl]-piperazine] | 2.2 | 6530 | –
4 | O=[N+]([O-])c1ccc(C#CCCN2CCN(c3ccccn3)CC2)nc1 [Example 5, 1-[4-(5-Nitro-2-pyridinyl)-3-butynyl]-4-(2-pyridinyl)piperazine] | 14.1 | > 10000 | –
5 | O=[N+]([O-])c1ccc(C#CCCN2CCN(c3ccccn3)CC2)cc1 [Example 6, 1-[4-(4-Nitrophenyl)-3-butynyl]-4-(2-pyridinyl)-piperazine] | 7.7 | 2500 | –
6 | Nc1ccc(C#CCCN2CCN(c3ccccn3)CC2)nc1 [Example 7, 6-[4-[4-(2-Pyridinyl)-1-piperazinyl]-1-butynyl]-3-pyridinamine] | 0.35 | 1900 | 24
7 | Nc1ccc(C#CCCN2CCN(c3ccccn3)CC2)cc1 [Example 8, 4-[4-[4-(2-Pyridinyl)-1-piperazinyl]-1-butynyl]-benzenamine] | 0.56 | 611 | 63
